# Reference: patent publication US5264586A, “Analogs of calicheamicin gamma1I, method of making and using the same” (priority 1992, dated 1993)
# Tests used:
# [1] = test system: ATCC Capan-1 (pancreatic carcinoma); assay: Sulforhodamine B cytotoxicity assay, Capan-1; format: cell-based; settings: 72 hours, SRB
# Description: (§1) Sulfurodamine B Cytotoxicity Assay
# (§2) Cytotoxicity assays using (-)-calicheamicinone were carried out as follows:
# (§3) 1. Preparation of target cells in 96-well plates
# (§4) g. Adjust volume of cell suspension with T.C. media to give a density of 1×10^5 cells/mL.
# (§5) j. Incubate plates for 24 hours at 37° C., 5-10 percent CO2 in a humidified incubator.
# (§6) a. Stock drug solutions were prepared by dissolving drug in the appropriate solvent (determined during chemical characterization studies) and sterile filtering the drug-solvent solution through a sterile 0.2 μ filter unit. An aliquot was taken from each filtered drug solution and the O.D. was measured to determine the drug concentration.
# (§7) b. Dilute the stock drug solution prepared above with T.C. medium to the desired initial concentration (10^-2 -10^-4 M). A minimum volume of 220 μL of diluted drug is required per 96-well plate used in the assay.
# (§8) b. Add 100 μL of the initial compound dilution to adjacent duplicate wells in Columns #2. (Four materials can be tested in duplicate per 96-well plate.)
# (§9) d. Transfer 10 μL to the appropriate wells in Column #4 and continue to make 1:10 dilutions of compound across the plate through Column #12.
# f. […]
# (§10) g. Read plates on a microtiter plate reader at […].
# (§11) IC50 values; i.e., the concentration of Compound required to kill one-half of the treated cells, were then calculated. […]
# [2] = test system: CHO (Chinese hampster ovary); assay: Sulforhodamine B cytotoxicity assay, CHO; format: cell-based; settings: 72 hours, SRB
# Description: as §1, §2, §3, §4, §5, §6, §7, §8, §9
# f. […]
# as §10, §11
# [3] = test system: ATCC HL-60 (promyeocytic leukemia); assay: Sulforhodamine B cytotoxicity assay, HL-60; format: cell-based; settings: 72 hours, SRB
# Description: as §1, §2, §3, §4, §5, §6, §7, §8, §9
# f. […]
# as §10, §11
# [4] = test system: ATCC HT-29 (Colon carcinoma); assay: Sulforhodamine B cytotoxicity assay, HT-29; format: cell-based; settings: 72 hours, SRB
# Description: as §1, §2, §3, §4, §5, §6, §7, §8, §9
# f. […]
# as §10, §11
# [5] = test system: ATCC MCF-7 (Breast carcinoma); assay: Sulforhodamine B cytotoxicity assay, MCF-7; format: cell-based; settings: SRB
# Description: as §1, §2, §3, §4, §5, §6, §7, §8, §9
# f. […]
# as §10, §11
# [6] = test system: ATCC Molt-4 (T-cell leukemia); assay: Sulforhodamine B cytotoxicity assay, Molt-4; format: cell-based; settings: 72 hours, SRB
# Description: as §1, §2, §3, §4, §5, §6, §7, §8, §9
# f. […]
# as §10, §11
# [7] = test system: NHDF (Normal human dermal fibroblast); assay: Sulforhodamine B cytotoxicity assay, NHDF; format: cell-based; settings: 72 hours, SRB
# Description: as §1, §2, §3, §4, §5, §6, §7, §8, §9
# f. […]
# as §10, §11
# [8] = test system: ATCC Ovcar 3 (Ovarian carcinoma); assay: Sulforhodamine B cytotoxicity assay, Ovcar 3; format: cell-based; settings: 72 hours, SRB
# Description: as §1, §2, §3, §4, §5, §6, §7, §8, §9
# f. […]
# as §10, §11
# UCLA-P3 (lung carcinoma) = assay: Sulforhodamine B cytotoxicity assay, UCLA-P3; format: cell-based; settings: SRB
# Description: as §1, §2, §3, §4, §5, §6, §7, §8, §9
# f. […]
# as §10, §11
# [9] = test system: ATCC P-388 (Mouse leukemia); assay: Sulforhodamine B cytotoxicity assay, P-388; format: cell-based; settings: SRB
# Description: as §1, §2, §3, §4, §5, §6, §7, §8, §9
# f. […]
# as §10, §11
# [10] = test system: ATCC SK-MEL-28 (Melanoma); assay: Sulforhodamine B cytotoxicity assay, SK-MEL-28; format: cell-based; settings: 72 hours, SRB
# Description: as §1, §2, §3, §4, §5, §6, §7, §8, §9
# f. […]
# as §10, §11
# H-322 (lung carcinoma) = assay: Sulforhodamine B cytotoxicity assay, H-322; format: cell-based; settings: NCI-H322, 72 hours, SRB
# Description: as §1, §2, §3, §4, §5, §6, §7, §8, §9
# f. […]
# as §10, §11
# DNA = settings: double stranded DNA; cited from earlier work
# murine tumors = settings: cited from earlier work
compound,measurement,setting,value
"COC(=O)NC1=C2/C(=C\CSSSC)[C@](O)(C#C/C=C\C#C[C@@H]2O)CC1=O [(-)-calicheamicinone, (-)-Calicheamicinone]",IC50,[1],3100 nM
same,IC50,[2],63000 nM
same,IC50,[3],200 nM
same,IC50,[4],28000 nM
same,IC50,[5]; 72 hours,13000 nM
same,IC50,[6],1 nM
same,IC50,[7],13000 nM
same,IC50,[8],25000 nM
same,IC50,UCLA-P3 (lung carcinoma); 72 hours,25000 nM
same,IC50,[9]; 72 hours,390 nM
same,IC50,[10],25000 nM
"COc1cccc2c1C(=O)c1c(O)c3c(c(O)c1C2=O)C[C@@](O)(C(C)=O)C[C@@H]3O[C@H]1C[C@H](N)[C@H](O)[C@H](C)O1 [Daunomycin, daunomycin]",IC50,[1]; Homo sapiens,780 nM
same,IC50,[2],1600 nM
same,IC50,H-322 (lung carcinoma),1600 nM
same,IC50,[3]; Homo sapiens,200 nM
same,IC50,[4]; Homo sapiens,1600 nM
same,IC50,"[5]; Homo sapiens, MCF7, 72 hours",390 nM
same,IC50,[6]; Homo sapiens,0.1 nM
same,IC50,[7]; Homo sapiens,390 nM
same,IC50,[8]; Homo sapiens,390 nM
same,IC50,"UCLA-P3 (lung carcinoma); Homo sapiens, UCLA P-3, 72 hours",1600 nM
same,IC50,"[9]; Mus musculus, P388, 72 hours",200 nM
same,IC50,[10]; Homo sapiens,1600 nM
CCN[C@H]1CO[C@@H](O[C@H]2[C@H](O[C@H]3C#C/C=C\C#C[C@]4(O)CC(=O)C(NC(=O)OC)=C3/C4=C\CSSSC)O[C@H](C)[C@@H](NO[C@H]3C[C@H](O)[C@H](SC(=O)c4c(C)c(I)c(O[C@@H]5O[C@@H](C)[C@H](O)[C@@H](OC)[C@H]5O)c(OC)c4OC)[C@@H](C)O3)[C@@H]2O)C[C@@H]1OC [calicheamicin],DNA cleavage site / sequence specificity,DNA,5' side of a TCCT sequence
same,optimal dose against murine tumors,murine tumors; murine tumors,0.5-1.5 microgram (μg) per kilogram (kg) of body weight
same,activity relative to adriamycin against murine tumors,murine tumors; vs adriamycin,about 1000 -fold more active
Neocarzinostatin,DNA cleavage site / sequence specificity,DNA,sequence-specificity in its DNA cleavage
